From PMC6345968, “Structural basis for species-selective targeting of Hsp90 in a pathogenic fungus” (Nature Communications, 2019)
pEC50, pIC50, pKi: −log10 of the molar value. Several values for one entry are separate records, joined by “and”; a condition that tells them apart may be missing. Equal values may be shown once. Read-outs that look alike come from different tables or passages of the source.

Key:
[1] = molecular target: human Grp94 NBD (Homo sapiens, UniProt P14625); assay: biochemical
Sequence of human Grp94 NBD (P14625 63-337): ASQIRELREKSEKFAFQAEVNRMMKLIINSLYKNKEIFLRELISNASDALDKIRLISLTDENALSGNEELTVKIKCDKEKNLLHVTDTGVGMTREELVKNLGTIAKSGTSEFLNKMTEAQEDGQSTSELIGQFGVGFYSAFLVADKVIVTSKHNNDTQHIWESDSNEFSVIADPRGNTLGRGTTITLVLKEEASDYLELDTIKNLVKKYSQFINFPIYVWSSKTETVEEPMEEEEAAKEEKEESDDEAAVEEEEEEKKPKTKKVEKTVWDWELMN

[2] = test system: Hsp90 in HEPG2 lysate; details: for FP signal (raw) / FP signal: HepG2 lysate; for FP signal: raw
[3] = molecular target: T1, Hsp90 in C. albicans (SC5314) lysate (Candida albicans, UniProt P46598); assay: biochemical; assay type: binding; details: for FP signal: raw
T1 construct: endogenous in cells; host or cells: C. albicans SC5314 whole-cell lysate
T1 sequence (P46598 whole entry): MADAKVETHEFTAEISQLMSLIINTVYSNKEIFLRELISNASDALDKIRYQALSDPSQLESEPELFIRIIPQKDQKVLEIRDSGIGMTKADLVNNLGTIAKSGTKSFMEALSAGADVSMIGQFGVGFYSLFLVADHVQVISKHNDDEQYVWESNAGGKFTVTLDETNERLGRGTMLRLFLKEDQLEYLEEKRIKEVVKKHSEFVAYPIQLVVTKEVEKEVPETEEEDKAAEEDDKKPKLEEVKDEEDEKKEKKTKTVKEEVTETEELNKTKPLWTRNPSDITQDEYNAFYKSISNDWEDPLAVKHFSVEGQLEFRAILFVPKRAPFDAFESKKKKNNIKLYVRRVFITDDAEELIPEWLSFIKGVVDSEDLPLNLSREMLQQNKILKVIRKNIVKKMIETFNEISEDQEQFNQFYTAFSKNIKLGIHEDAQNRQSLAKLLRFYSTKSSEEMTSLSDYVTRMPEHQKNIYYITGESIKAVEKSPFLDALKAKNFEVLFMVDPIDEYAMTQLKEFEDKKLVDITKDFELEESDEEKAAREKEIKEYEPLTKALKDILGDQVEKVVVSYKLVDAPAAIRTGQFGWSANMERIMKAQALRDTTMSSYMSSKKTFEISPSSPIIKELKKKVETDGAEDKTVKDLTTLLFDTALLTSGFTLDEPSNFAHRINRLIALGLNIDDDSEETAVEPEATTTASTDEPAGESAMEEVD

[4] = test system: Hsp90 in 3T3 lysate; assay: FP competition in whole-cell lysate; assay type: binding, mouse; details: quiescent 3T3 cells, FP
Procedure: After vortexing, cell lysate was frozen at −80 °C for 2 h, followed by thawing on ice. The vortex-freeze-thaw step was repeated. […] Aliquots were thawed immediately prior to use.

[5] = molecular target: T2, C. albicans Hsp90 NBD (Candida albicans, UniProt P46598); assay: biochemical; assay type: binding
T2 construct: C. albicans Hsp90 (E7-K218); made in house; host or cells: E. coli Rosetta2
T2 sequence (P46598 7-218): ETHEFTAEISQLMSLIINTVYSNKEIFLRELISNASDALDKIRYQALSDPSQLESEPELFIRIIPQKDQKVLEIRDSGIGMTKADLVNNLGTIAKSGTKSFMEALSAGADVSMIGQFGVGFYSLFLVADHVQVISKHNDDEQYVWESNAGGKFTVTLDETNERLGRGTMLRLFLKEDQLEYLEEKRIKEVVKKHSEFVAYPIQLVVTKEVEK

[6] = SC5314 lysate, 0.457 nM compound
[7] = SC5314 lysate, 1.372 nM compound
[8] = SC5314 lysate, 4.115 nM compound
[9] = SC5314 lysate, 12.346 nM compound
[10] = SC5314 lysate, 37.037 nM compound
[11] = SC5314 lysate, 111.111 nM compound
[12] = SC5314 lysate, 333.333 nM compound
[13] = SC5314 lysate, 1000 nM compound
[14] = SC5314 lysate, 3000 nM compound

With `COc1ccc(CON=C2C=CC=CC3OC3CC(C)OC(=O)c3c(O)cc(O)cc3C2)cc1` (stereo not shown) [CMLD013075] the pIC50 ([1]; I50, single experiments Expt 1-3) was 6.37 and 6.31 and 6.58, the pIC50 ([1]; IC50 (Equation 16), corrected I50, single experiments, unit inferred) was 6.37 and 6.31 and 6.59 and the pKi ([1]; Inhibitor Ki, single experiments Expt 1-3) was 7.36 and 7.31 and 7.58. For the same molecule, the pKi ([1]; Ki, purified NBD, Cy3-GdA probe, mean (± SEM) of 3 experiments) was 7.40, the “Ratio rel. GdA (HepG2)” value ([2]; EC50 / EC50 of GdA in HepG2 lysate) was 135.257 and the “Ratio rel. GdA (HepG2)” value ([2]; EC50 relative to GdA, HEPG2 lysate) was 135.257. For the same molecule, the “FP signal, Fxn Control” value ([2]; HEPG2 lysate, log concentration 0.137354 (1.372 nM)) was 0.9857, the “FP signal, Fxn Control” value ([2]; HEPG2 lysate, log concentration 0.61437 (4.115 nM)) was 0.9905 and the “FP signal, Fxn Control” value ([2]; HEPG2 lysate, log concentration 1.09153 (12.346 nM)) was 1. The “FP signal, Fxn Control” value ([2]; HEPG2 lysate, log concentration 1.56864 (37.037 nM)) was 1.005, the “FP signal, Fxn Control” value ([2]; HEPG2 lysate, log concentration 2.04576 (111.111 nM)) was 0.9905 and the “FP signal, Fxn Control” value ([2]; HEPG2 lysate, log concentration 2.52288 (333.333 nM)) was 0.9762. For the same molecule, the “FP signal, Fxn Control” value ([2]; HEPG2 lysate, log concentration 3 (1000 nM)) was 0.8333, the “FP signal, Fxn Control” value ([2]; HEPG2 lysate, log concentration 3.47712 (3000 nM)) was 0.5286 and the “FP signal, Fxn Control” value ([2]; HEPG2 lysate, log concentration -0.340084 (0.457 nM)) was 0.9857. The “FP signal (raw)” value ([2]; 0.457 nM) was 207, the FP signal ([2]; 0.457 nM compound) was 207 and the “FP signal (raw)” value ([2]; 1.372 nM) was 207. For the same molecule, the FP signal ([2]; 1.372 nM compound) was 207, the “FP signal (raw)” value ([2]; 4.115 nM) was 208 and the FP signal ([2]; 4.115 nM compound) was 208. The “FP signal (raw)” value ([2]; 12.346 nM) was 210, the FP signal ([2]; 12.346 nM compound) was 210 and the “FP signal (raw)” value ([2]; 37.037 nM) was 211. For the same molecule, the FP signal ([2]; 37.037 nM compound) was 211, the “FP signal (raw)” value ([2]; 111.111 nM) was 208 and the FP signal ([2]; 111.111 nM compound) was 208. For the same molecule, the “FP signal (raw)” value ([2]; 333.333 nM) was 205, the FP signal ([2]; 333.333 nM compound) was 205 and the “FP signal (raw)” value ([2]; 1000 nM) was 175. For the same molecule, the FP signal ([2]; 1000 nM compound) was 175, the “FP signal (raw)” value ([2]; 3000 nM) was 111 and the FP signal ([2]; 3000 nM compound) was 111. The “normalized fungal selectivity in lysates” value ([3]; C. albicans SC5314 vs HEPG2 lysate, FP) was 4.6 fold, the “relative binding affinity in fungal vs mammalian lysates” value ([3]; C. albicans vs HEPG2 and 3T3 lysates, FP) was “higher” and the pEC50 ([3]; EC50, SC5314 lysate, not normalized, oxime panel experiment 220817) was 6.30. For the same molecule, the “Ratio re. GdA” value ([3]; EC50 relative to GdA, SC5314 lysate) was 29.6649, the “FP signal (raw)” value ([3]; SC5314 lysate, 0.457 nM) was 200 and the “FP signal relative to 0 nM” value [3, 6] was 0.9709. For the same molecule, the FP signal [3, 6] was 200, the “FP signal (raw)” value ([3]; SC5314 lysate, 1.372 nM) was 200 and the “FP signal relative to 0 nM” value [3, 7] was 0.9709. The FP signal [3, 7] was 200, the “FP signal (raw)” value ([3]; SC5314 lysate, 4.115 nM) was 199 and the “FP signal relative to 0 nM” value [3, 8] was 0.966. For the same molecule, the FP signal [3, 8] was 199, the “FP signal (raw)” value ([3]; SC5314 lysate, 12.346 nM) was 199 and the “FP signal relative to 0 nM” value [3, 9] was 0.966. The FP signal [3, 9] was 199, the “FP signal (raw)” value ([3]; SC5314 lysate, 37.037 nM) was 196 and the “FP signal relative to 0 nM” value [3, 10] was 0.9515. For the same molecule, the FP signal [3, 10] was 196, the “FP signal (raw)” value ([3]; SC5314 lysate, 111.111 nM) was 182 and the “FP signal relative to 0 nM” value [3, 11] was 0.8835. For the same molecule, the FP signal [3, 11] was 182, the “FP signal (raw)” value ([3]; SC5314 lysate, 333.333 nM) was 146 and the “FP signal relative to 0 nM” value [3, 12] was 0.7087. For the same molecule, the FP signal [3, 12] was 146, the “FP signal (raw)” value ([3]; SC5314 lysate, 1000 nM) was 69 and the “FP signal relative to 0 nM” value [3, 13] was 0.335. For the same molecule, the FP signal [3, 13] was 69, the “FP signal (raw)” value ([3]; SC5314 lysate, 3000 nM) was 40 and the “FP signal relative to 0 nM” value [3, 14] was 0.1942. For the same molecule, the FP signal [3, 14] was 40, the HepG2/SC5314 ([3]; ratio of GdA-normalized EC50s, human over fungal lysate) was 4.5595 and the HepG2/SC5314 ([3]; ratio of GdA-relative EC50 ratios, HepG2 over SC5314) was 4.5595. For the same molecule, the “relative binding affinity in 3T3 lysate vs HEPG2 lysate” value [4] was “lower in 3T3 lysate than HEPG2 lysate”, the pIC50 ([5]; corrected I50, single experiments, unit inferred, read-out: IC50 (Equation 16)) was 7.11 and 7.10 and 7.36 and the pKi ([5]; purified NBD, Cy3-GdA probe, mean (± SEM) of 3 experiments, read-out: Ki) was 8.11. The “selectivity for fungal Hsp90 NBD over human Grp94 NBD” value ([5]; purified NBDs, FP) was ~ 5 fold and 5 fold, the “selectivity for fungal Hsp90 NBD over human Hsp90 NBD” value ([5]; purified NBDs, FP) was ~ 28 fold and > 25 fold and the pIC50 ([5]; single experiments Expt 1-3, read-out: I50) was 7.08 and 7.32. The Ki ([5]; single experiments Expt 1-3, read-out: Inhibitor Ki) was 8.8 nM (2×) and 5.5 nM.
